Measurements: PubChem BioAssay (NCI)
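Growth conditions: 96-well plates. Treatment: test compound, 48 hours, 5 concentrations. Analysis: linear interpolation between bracketing concentrations; unreached endpoints set to highest concentration. GI50 is the concentration that inhibits growth by half. TGI denotes the concentration required for complete inhibition of growth.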

Assays:
Assay in all cases: DTP human tumour cell line panel, 48 h
786-0 renal = system: 786-0 renal
A498 renal = system: A498 renal
A549 NSCLC = system: A549 NSCLC
ACHN renal = system: ACHN renal
BT-549 breast = system: BT-549 breast
CAKI-1 renal = system: CAKI-1 renal
DU-145 prostate = system: DU-145 prostate
EKVX NSCLC = system: EKVX NSCLC
HCC-2998 colon = system: HCC-2998 colon
HCT-116 colon = system: HCT-116 colon
HCT-15 colon = system: HCT-15 colon
HOP-62 NSCLC = system: HOP-62 NSCLC
HOP-92 NSCLC = system: HOP-92 NSCLC
HS 578T breast = system: HS 578T breast
HT29 colon = system: HT29 colon
IGROV1 ovarian = system: IGROV1 ovarian
K-562 leukemia = system: K-562 leukemia
KM12 colon = system: KM12 colon
LOX IMVI melanoma = system: LOX IMVI melanoma
M14 melanoma = system: M14 melanoma
MALME-3M melanoma = system: MALME-3M melanoma
MCF7 breast = system: MCF7 breast
MDA-MB-231 breast = system: MDA-MB-231 breast
MDA-MB-435 = system: MDA-MB-435
MOLT-4 leukemia = system: MOLT-4 leukemia
NCI-H226 lung = system: NCI-H226 lung
NCI-H23 lung = system: NCI-H23 lung
NCI-H460 lung = system: NCI-H460 lung
NCI-H522 lung = system: NCI-H522 lung
NCI/ADR-RES ovarian = system: NCI/ADR-RES ovarian
OVCAR-3 ovarian = system: OVCAR-3 ovarian
OVCAR-4 ovarian = system: OVCAR-4 ovarian
OVCAR-5 ovarian = system: OVCAR-5 ovarian
OVCAR-8 ovarian = system: OVCAR-8 ovarian
PC-3 prostate = system: PC-3 prostate
RPMI-8226 leukemia = system: RPMI-8226 leukemia
RXF 393 renal = system: RXF 393 renal
SF-268 CNS = system: SF-268 CNS
SF-295 CNS = system: SF-295 CNS
SF-539 CNS = system: SF-539 CNS
SK-MEL-2 melanoma = system: SK-MEL-2 melanoma
SK-MEL-28 melanoma = system: SK-MEL-28 melanoma
SK-MEL-5 melanoma = system: SK-MEL-5 melanoma
SK-OV-3 ovarian = system: SK-OV-3 ovarian
SN12C renal = system: SN12C renal
SNB-19 CNS = system: SNB-19 CNS
SNB-75 CNS = system: SNB-75 CNS
SR leukemia = system: SR leukemia
SW-620 colon = system: SW-620 colon
T-47D breast = system: T-47D breast
TK-10 renal = system: TK-10 renal
U251 CNS = system: U251 CNS
UACC-257 melanoma = system: UACC-257 melanoma
UACC-62 melanoma = system: UACC-62 melanoma
UO-31 renal = system: UO-31 renal

Work on Cc1cn2c(/C=C3/C(=O)Nc4ccc(Cl)cc43)c(C)nc2s1 yielded a GI50 (786-0 renal) of less than 0.0403 µM, a TGI (786-0 renal) of 31.1 µM and a GI50 (A498 renal) of 0.1 µM. The TGI (A498 renal) was 0.645 µM, the GI50 (A549 NSCLC) was 1.05 µM and the TGI (A549 NSCLC) was greater than 49.1 µM. It also gave a GI50 (ACHN renal) of 0.185 µM, a TGI (ACHN renal) of 48.4 µM and a GI50 (BT-549 breast) of 5.94 µM. It also gave a TGI (BT-549 breast) of 97.1 µM, a GI50 (CAKI-1 renal) of 0.741 µM and a GI50 (DU-145 prostate) of 0.84 µM. The TGI (DU-145 prostate) was greater than 39.3 µM, the GI50 (EKVX NSCLC) was 12.5 µM and the TGI (EKVX NSCLC) was greater than 100 µM. The GI50 (HCC-2998 colon) was less than 0.024 µM, the TGI (HCC-2998 colon) was 1.04 µM and the GI50 (HCT-116 colon) was less than 0.0238 µM. For the same compound, the TGI (HCT-116 colon) was 25.3 µM, the GI50 (HCT-15 colon) was less than 0.0403 µM and the TGI (HCT-15 colon) was greater than 92.8 µM. It also gave a GI50 (HOP-62 NSCLC) of 0.214 µM, a TGI (HOP-62 NSCLC) of 18.3 µM and a GI50 (HOP-92 NSCLC) of 16 µM. The TGI (HOP-92 NSCLC) was 70.1 µM, the GI50 (HS 578T breast) was 0.222 µM and the TGI (HS 578T breast) was 0.852 µM. For the same compound, the TGI (HT29 colon) was greater than 56.8 µM, the GI50 (IGROV1 ovarian) was 2.5 µM and the TGI (IGROV1 ovarian) was 99.4 µM. The TGI (K-562 leukemia) was greater than 100 µM, the GI50 (KM12 colon) was 1.17 µM and the TGI (KM12 colon) was 24 µM. It also gave a GI50 (LOX IMVI melanoma) of 0.0706 µM, a TGI (LOX IMVI melanoma) of 54.5 µM and a GI50 (M14 melanoma) of less than 0.028 µM. The TGI (M14 melanoma) was greater than 45.7 µM, the GI50 (MALME-3M melanoma) was 1.22 µM and the GI50 (MCF7 breast) was 1.57 µM. It also gave a TGI (MCF7 breast) greater than 100 µM, a GI50 (MDA-MB-231 breast) of 0.678 µM and a TGI (MDA-MB-231 breast) of 24.8 µM. It also gave a GI50 (MDA-MB-435) of 2.12 µM, a TGI (MDA-MB-435) of 5.41 µM and a GI50 (MOLT-4 leukemia) of 0.0776 µM. The TGI (MOLT-4 leukemia) was greater than 100 µM, the GI50 (NCI-H226 lung) was 11 µM and the TGI (NCI-H226 lung) was greater than 90.6 µM. For the same compound, the GI50 (NCI-H23 lung) was 0.0454 µM, the TGI (NCI-H23 lung) was 0.37 µM and the GI50 (NCI-H460 lung) was 1.04 µM. It also gave a TGI (NCI-H460 lung) greater than 59.4 µM, a GI50 (NCI-H522 lung) of 1.01 µM and a TGI (NCI-H522 lung) greater than 100 µM. For the same compound, the GI50 (NCI/ADR-RES ovarian) was 0.0211 µM, the GI50 (OVCAR-3 ovarian) was 0.564 µM and the TGI (OVCAR-3 ovarian) was 5.28 µM. It also gave a GI50 (OVCAR-4 ovarian) greater than 39.3 µM, a TGI (OVCAR-4 ovarian) greater than 54 µM and a GI50 (OVCAR-5 ovarian) of 1.91 µM. It also gave a TGI (OVCAR-5 ovarian) greater than 43.4 µM, a GI50 (OVCAR-8 ovarian) of 2.75 µM and a TGI (OVCAR-8 ovarian) of 32.7 µM. The GI50 (PC-3 prostate) was 0.0447 µM, the GI50 (RPMI-8226 leukemia) was 0.0137 µM and the TGI (RPMI-8226 leukemia) was greater than 100 µM. For the same compound, the GI50 (RXF 393 renal) was 6.74 µM, the TGI (RXF 393 renal) was greater than 100 µM and the GI50 (SF-268 CNS) was 12.5 µM. It also gave a TGI (SF-268 CNS) greater than 100 µM, a GI50 (SF-295 CNS) of 0.871 µM and a TGI (SF-295 CNS) of 2.65 µM. The GI50 (SF-539 CNS) was 0.124 µM, the TGI (SF-539 CNS) was 0.692 µM and the GI50 (SK-MEL-2 melanoma) was 21.4 µM. It also gave a TGI (SK-MEL-2 melanoma) greater than 100 µM, a GI50 (SK-MEL-28 melanoma) of 17 µM and a TGI (SK-MEL-28 melanoma) greater than 54.7 µM. For the same compound, the GI50 (SK-MEL-5 melanoma) was 0.125 µM, the TGI (SK-MEL-5 melanoma) was 14.4 µM and the GI50 (SK-OV-3 ovarian) was 0.384 µM. The TGI (SK-OV-3 ovarian) was 24.2 µM, the TGI (SN12C renal) was 65 µM and the TGI (SNB-19 CNS) was greater than 42.4 µM. For the same compound, the GI50 (SNB-75 CNS) was 16.3 µM, the TGI (SNB-75 CNS) was 29.8 µM and the TGI (SR leukemia) was greater than 100 µM. For the same compound, the GI50 (SW-620 colon) was 0.22 µM, the TGI (SW-620 colon) was greater than 67.7 µM and the GI50 (T-47D breast) was 4.09 µM. It also gave a TGI (T-47D breast) greater than 75 µM, a GI50 (TK-10 renal) of 2.42 µM and a TGI (TK-10 renal) of 17.5 µM. For the same compound, the GI50 (U251 CNS) was less than 0.0235 µM, the TGI (U251 CNS) was 28.7 µM and the GI50 (UACC-257 melanoma) was 12.9 µM. The TGI (UACC-257 melanoma) was greater than 100 µM, the GI50 (UACC-62 melanoma) was 0.0411 µM and the TGI (UACC-62 melanoma) was 54.7 µM. The GI50 (UO-31 renal) was 15.6 µM and the TGI (UO-31 renal) was greater than 100 µM.
